In brackets after ≈: the same amount, converted by molar mass.
System: E. coli (APH(3′)Ia)
Assay: MIC 50, broth micro-dilution, E. coli expressing APH(3′)Ia
Assay type: cell-based, Escherichia coli
Description: Plasmid transformation. Approximately 500 ng of the pET-9b(+) (Cat. No. 69432-3, Merck), pAT21-1 (provided by Prof. Dr. Patrice Courvalin, M.D., Pasteur Institute, France; prepared according to Trieu-Cuot et. al, Mol. Gen. Genet. 198(2), 348 (1985)), pBluescript::AAC(6′)-Ie/APH(2″)-Ia (provided by Prof. Dr. Sergei Vakulenko, M.D., University of Notre Dame, Ind., USA; prepared according to S. B. Vakulenko et. al., J. Biol. Chem. 287 (52), 43262 (2012)), pBlue_lpp_aacC3_rrnC and pSET152 (Cat. No. PVT3395, Life Science Market; prepared according to Bierman et al., Gene 116 (1), 43 (1992)) plasmids, encoding APH(3′)-Ia (SEQ ID NO:2), APH(3′)-IIIa (SEQ ID NO:3), AAC(6′)Ie-APH(2″)-Ia (SEQ ID NO:4), AAC(3)-III (SEQ ID NO:1), and AAC(3)-IV (SEQ ID NO:5) respectively, were individually incubated in a vial of competent cells for 15 min on ice. The cells were subsequently heated to 42° C. for 90 s, and cooled on ice for 1 min. After addition of 900 μL LB, the cells were incubated for 1 h at 37° C. and 200 rpm. Cells were plated on LB-agar supplemented with 50 μg/mL KanaA and incubated for 18 h at 37° C. The next day, a single colony was inoculated in 5 mL LB supplemented with 50 μg/mL and grown for 18 h at 37° C. and 200 rpm. A 200 μL sample of each culture was diluted with 200 μL of 40% v/v glycerol in water, and stored at −80° C. The plasmid was purified from the remaining culture using the Plasmid Miniprep kit. Plasmid DNA was investigated by Eurofins Genomics (Germany) to confirm the identity of the aminoglycoside resistance genes.
3.1 Against E. coli Strains
Tested reference compounds. Amikacin sulfate (Cat. No. 01693, Chem-Impex), Gentamicin sulfate (Cat. No. G4918, Sigma Aldrich).
Microbial strains. E. coli ATCC 25922, E. coli ATCC 25922/pET-9b(+), E. coli ATCC 25922/pAT21-1, E. coli ATCC 25922/pBluescript::AAC(6′)-Ie/APH(2″)-Ia, E. coli ATCC 25922/pBlue_lpp_aacC3_rrnC, E. coli ATCC 25922/pSET152.
Culture media and equipment. BBL™ Mueller Hinton Broth 2 (Lot. BCBW1143, Cat. No. 70192, Sigma); Kanamycin A (Cat. No. A1493, AppliChem); 96-well deep well plate, 1 mL (Cat. No. 0030506.200, Eppendorf); Plate lids (Cat. No. 0030131.525, Eppendorf); 96-well plate, F-bottom (Cat. No. 781602, Brand; Incubator, Infors Multitron Pro); Laminar flow (Heraeus KS12); UV/VIS meter (Eppendorf BioPhotometer Plus); Platereader (Tecan Sunrise).
Compound preparation. Compounds were prepared in MH2 media at a concentration of 5 mM and stored at 4° C. For testing, solutions of 128 μM were prepared in MH2. Out of these working solutions, 400 μL was transferred to wells in the first column of 96-well deep well plates. Each compound was transferred in triplicate. Plates were previously filled with 200 μL of MH2 media in all wells except for the wells in the first column. After compound and antibiotic addition, the compounds were serial two-fold diluted by transferring 200 μL from the first to the second column, then from the second to the third column and so on. Finally, 200 μL was removed from the last column.
Inoculum preparation. Microorganisms used were all revived from 20% glycerol (40% v/v glycerol in water was diluted with MH2) storage at −80° C. by inoculating them in 5 mL MH2. inoculums of E. coli containing a plasmid were selected for by adding 50 μg/mL KanaA. The Inoculums were grown to an optical density (measured by UV/Vis spectroscopy) of 0.6-0.8 at 600 nm. Out of these suspensions, actual inoculums were prepared by diluting them to an optical density (OD) of 0.1 in MH2 media. From these inoculums, 200 μL was transferred to each well, resulting in a final compound concentration range of 64 μM-31.3 nM. All plates were incubated at 900 rpm and 70% rH for 18 h at 37° C.
MIC determination. After 18 h of growth, 200 μL was transferred to a 96-well F-bottom plate. The optical density was determined by a plate reader at 600 nm, with 10 s shaking before reading. Triplicate measurements were averaged, and a growth curve was plotted in Microsoft Excel. […]

[1] = ATCC25922 harboring plasmid encoding APH(3′)Ia
[2] = Escherichia coli, ATCC25922, ATCC25922 harboring plasmid encoding APH(3′)Ia

Row | Compound | MIC50 [1] | MIC50 [2]
1 | NCC[C@H](O)C(=O)N[C@@H]1C[C@H](N)[C@@H](O[C@H]2O[C@H](CN)[C@@H](O)[C@@H](O)[C@H]2O)[C@H](O)[C@H]1O[C@H]1O[C@H](CO)[C@@H](O)[C@H](N)[C@H]1O [ABX3002, 3′Epi-KanaA-AHB] | 32 µM (≈ 18.7 µg/mL) | 
2 | N=C(N)NC1[C@@H](O)C(OC2[C@@H](F)[C@H](O[C@H]3OC(CN)[C@@H](O)[C@H](O)C3O)C(N)C[C@H]2NC(=O)[C@@H](O)CCN)O[C@H](CO)[C@H]1O (stereo partly drawn) [ABX3003, 3′epi-KanaA-AHB-F-Gua] |  | 8 µM (≈ 5.04 µg/mL)
3 | NCCC(O)C(=O)NC1CC(N)C(OC2OC(CN)C(O)C(O)C2O)C(F)C1OC1OC(CO)C(O)C(N)C1O (stereo not drawn) [ABX3005, 3′Epi-KanaA-AHB-F] | 8 to 16 µM | 
4 | NCCC(O)C(=O)NC1CC(N)C(OC2OC(CN)C(O)C(O)C2N)C(O)C1OC1OC(CO)C(O)C(N)C1O (stereo not drawn) [ABX4001, KanaB-AHB] | 8 µM (≈ 4.68 µg/mL) | 
5 | NCC[C@H](O)C(=O)N[C@@H]1CC(N)[C@@H](O[C@H]2OC(CN)[C@@H](O)[C@@H](O)C2N)[C@H](O)C1OC1O[C@H](CO)[C@@H](O)C(N)[C@H]1O (stereo partly drawn) [ABX4002, 3′Epi-KanaB-AHB] | 8 to 16 µM | 
6 | NCC[C@H](O)C(=O)N[C@@H]1CC(N)[C@@H](O[C@H]2OC(CN)[C@@H](O)[C@@H](O)C2N)[C@H](F)C1OC1O[C@H](CO)[C@@H](O)C(N)[C@H]1O (stereo partly drawn) [ABX4003, 3′Epi-KanaB-AHB-F] | 8 to 16 µM | 
7 | N=C(N)NC1[C@@H](O)C(OC2[C@@H](F)[C@H](O[C@H]3OC(CN)[C@@H](O)[C@H](O)C3N)C(N)C[C@H]2NC(=O)[C@@H](O)CCN)O[C@H](CO)[C@H]1O (stereo partly drawn) [ABX4004, 3′epi-KanaB-AHB-F-Gua] | 4 µM (≈ 2.51 µg/mL) | 
8 | N=C(N)N[C@@H]1[C@@H](O)[C@@H](O[C@@H]2[C@@H](O)[C@H](O[C@H]3O[C@H](CN)[C@@H](O)[C@@H](O)[C@H]3N)[C@@H](N)C[C@H]2NC(=O)[C@@H](O)CCN)O[C@H](CO)[C@H]1O [ABX4005, 3′Epi-KanaB-AHB-Gua] | 16 µM (≈ 10 µg/mL) | 
9 | N=C(N)NC1[C@@H](O)C(OC2[C@@H](F)[C@H](O[C@H]3OC(CN)[C@@H](O)[C@H](O)C3N)C(N)C[C@H]2NC(=O)[C@@H](O)CCN)O[C@H](CO)[C@H]1O (stereo partly drawn) [ABX4006, KanaB-AHB-F-Gua] | 1 to 2 µM | 
10 | NCCC(O)C(=O)NC1CC(N)C(OC2OC(CN)C(O)C(O)C2N)C(F)C1OC1OC(CO)C(O)C(N)C1O (stereo not drawn) [ABX4007, KanaB-AHB-F] | 4 µM (≈ 2.35 µg/mL) | 
11 | N=C(N)NC1[C@@H](O)C(OC2[C@@H](O)[C@H](O[C@H]3OC(CN)[C@@H](O)[C@H](O)C3N)C(N)C[C@H]2NC(=O)[C@@H](O)CCN)O[C@H](CO)[C@H]1O (stereo partly drawn) [ABX4009, KanaB-AHB-Gua] | 8 µM (≈ 5.01 µg/mL) | 
12 | NCC[C@H](O)C(=O)N[C@@H]1CC(N)[C@@H](O[C@H]2OC(CN)[C@@H](O)CC2N)[C@H](O)C1OC1O[C@H](CO)[C@@H](O)C(N)[C@H]1O (stereo partly drawn) [ABX5004, Tobra-AHB] | 4 to 8 µM | 
13 | N=C(N)NC1[C@@H](O)C(OC2[C@@H](O)[C@H](O[C@H]3OC(CN)[C@@H](O)CC3N)C(N)C[C@H]2NC(=O)[C@@H](O)CCN)O[C@H](CO)[C@H]1O (stereo partly drawn) [ABX5005, Tobra-AHB-Gua] | 2 to 4 µM | 
14 | N=C(N)NC1C(O)[C@@H](CO)OC(OC2C(F)[C@H](O[C@H]3OC(CN)[C@@H](O)CC3N)C(N)C[C@H]2NC(=O)[C@@H](O)CCN)[C@@H]1O (stereo partly drawn) [ABX5006, Tobra-AHB-F-Gua] |  | 0.5 µM (≈ 0.306 µg/mL)
15 | N=C(NCCN)NC1C(O)[C@@H](CO)OC(OC2C(F)[C@H](O[C@H]3OC(CN)[C@@H](O)CC3N)C(N)C[C@H]2NC(=O)[C@@H](O)CCN)[C@@H]1O (stereo partly drawn) [ABX5020, Tobra-AHB-F-Gua-2-amino-ethyl] |  | 1 to 2 µM (≈ 0.656 to 1.31 µg/mL)
16 | NCC[C@H](O)C(=O)N[C@@H]1CC(N)[C@@H](O[C@H]2OC(CN)[C@@H](O)CC2N)[C@H](F)C1OC1O[C@H](CO)[C@@H](O)C(N)[C@H]1O (stereo partly drawn) [ABX5024, Tobra-AHB-F] | 2 to 4 µM | 
17 | CC(C)(C)CCNC(=N)NC1[C@@H](O)C(OC2[C@@H](F)[C@H](O[C@H]3OC(CN)[C@@H](O)CC3N)C(N)C[C@H]2NC(=O)[C@@H](O)CCN)O[C@H](CO)[C@H]1O (stereo partly drawn) [ABX5025, Tobra-AHB-F-Gua 2-tBu-ethyl] |  | 1 µM (≈ 0.697 µg/mL)
18 | N=C(NC[C@@H]1CCCN1)NC1[C@@H](O)C(OC2[C@@H](F)[C@H](O[C@H]3OC(CN)[C@@H](O)CC3N)C(N)C[C@H]2NC(=O)[C@@H](O)CCN)O[C@H](CO)[C@H]1O (stereo partly drawn) [ABX5026, Tobra-AHB-F-Gua (S) pyrrolidine-2-yl-methyl] |  | 1 µM (≈ 0.696 µg/mL)
19 | N=C(NCC1CC1)NC1[C@@H](O)C(OC2[C@@H](F)[C@H](O[C@H]3OC(CN)[C@@H](O)CC3N)C(N)C[C@H]2NC(=O)[C@@H](O)CCN)O[C@H](CO)[C@H]1O (stereo partly drawn) [ABX5027, Tobra-AHB-F-Gua cyclopropylmethyl] |  | 1 µM (≈ 0.667 µg/mL)
20 | N=C(NCCO)NC1[C@@H](O)C(OC2[C@@H](F)[C@H](O[C@H]3OC(CN)[C@@H](O)CC3N)C(N)C[C@H]2NC(=O)[C@@H](O)CCN)O[C@H](CO)[C@H]1O (stereo partly drawn) [ABX5029, Tobra-AHB-F-Gua 2-hydroxy-ethyl] |  | 2 µM (≈ 1.31 µg/mL)
21 | N=C(NCCCN)NC1[C@@H](O)C(OC2[C@@H](F)[C@H](O[C@H]3OC(CN)[C@@H](O)CC3N)C(N)C[C@H]2NC(=O)[C@@H](O)CCN)O[C@H](CO)[C@H]1O (stereo partly drawn) [ABX5030, Tobra-AHB-F-Gua-3-amino-propyl] |  | 2 µM (≈ 1.34 µg/mL)
22 | CNCCNC(=N)NC1[C@@H](O)C(OC2[C@@H](F)[C@H](O[C@H]3OC(CN)[C@@H](O)CC3N)C(N)C[C@H]2NC(=O)[C@@H](O)CCN)O[C@H](CO)[C@H]1O (stereo partly drawn) [ABX5038, Tobra-AHB-F-Gua 2-(methylamino)ethyl] |  | 0.5 µM (≈ 0.335 µg/mL)
23 | N=C(NC[C@@H]1CCNC1)NC1[C@@H](O)C(OC2[C@@H](F)[C@H](O[C@H]3OC(CN)[C@@H](O)CC3N)C(N)C[C@H]2NC(=O)[C@@H](O)CCN)O[C@H](CO)[C@H]1O (stereo partly drawn) [ABX5039, Tobra-AHB-F-Gua (R) pyrrolidine-3-ylmethyl] |  | 0.25 µM (≈ 0.174 µg/mL)
24 | N=C(NC[C@@H]1CNCCO1)NC1[C@@H](O)C(OC2[C@@H](F)[C@H](O[C@H]3OC(CN)[C@@H](O)CC3N)C(N)C[C@H]2NC(=O)[C@@H](O)CCN)O[C@H](CO)[C@H]1O (stereo partly drawn) [ABX5040, Tobra-AHB-F-Gua (S) morpholin-2-yl methyl] |  | 1 µM (≈ 0.712 µg/mL)
25 | N=C(NCCCO)NC1[C@@H](O)C(OC2[C@@H](F)[C@H](O[C@H]3OC(CN)[C@@H](O)CC3N)C(N)C[C@H]2NC(=O)[C@@H](O)CCN)O[C@H](CO)[C@H]1O (stereo partly drawn) [ABX5041, Tobra-AHB-F-Gua 3-hydroxy-propyl] |  | 1 µM (≈ 0.671 µg/mL)
26 | N=C(NC[C@H]1CCNC1)NC1[C@@H](O)C(OC2[C@@H](F)[C@H](O[C@H]3OC(CN)[C@@H](O)CC3N)C(N)C[C@H]2NC(=O)[C@@H](O)CCN)O[C@H](CO)[C@H]1O (stereo partly drawn) [ABX5042, Tobra-AHB-F-Gua (S) pyrrolidine-3-ylmethyl] |  | 0.25 µM (≈ 0.174 µg/mL)
27 | N=C(NC[C@H]1CNCCO1)NC1[C@@H](O)C(OC2[C@@H](F)[C@H](O[C@H]3OC(CN)[C@@H](O)CC3N)C(N)C[C@H]2NC(=O)[C@@H](O)CCN)O[C@H](CO)[C@H]1O (stereo partly drawn) [ABX5043, Tobra-AHB-F-Gua (R) morpholin-2-yl methyl] |  | 0.5 to 1 µM (≈ 0.356 to 0.712 µg/mL)

— patent US20220127297A1, “Novel Antibacterial 3"-Derivatives Of 4,6-Disubstituted 2,5-Dideoxystreptamine Aminoglycoside Antibiotics” (AGILeBiotics B.V., priority 2018, published 2022)
